According to patent US20080102497A1, “ENZYMATIC HYDROLYSIS OF STARCH” (priority 2006, published 2008):
“And” between values parts separate entries of the source, which are not always exact repeats. Identical values can stand only once. Like-named read-outs stand apart in the source and are kept apart here.

Key:
[1] = target: T1, α-amylase from Bacillus licheniformis (Bacillus licheniformis, UniProt P06278); experiment: hydrolysis of cooked dent corn starch; type: biochemical; conditions: cooked dent corn starch 0.5%, pH 5.2, 37° C., 10 min
T1 sequence (P06278 30-512): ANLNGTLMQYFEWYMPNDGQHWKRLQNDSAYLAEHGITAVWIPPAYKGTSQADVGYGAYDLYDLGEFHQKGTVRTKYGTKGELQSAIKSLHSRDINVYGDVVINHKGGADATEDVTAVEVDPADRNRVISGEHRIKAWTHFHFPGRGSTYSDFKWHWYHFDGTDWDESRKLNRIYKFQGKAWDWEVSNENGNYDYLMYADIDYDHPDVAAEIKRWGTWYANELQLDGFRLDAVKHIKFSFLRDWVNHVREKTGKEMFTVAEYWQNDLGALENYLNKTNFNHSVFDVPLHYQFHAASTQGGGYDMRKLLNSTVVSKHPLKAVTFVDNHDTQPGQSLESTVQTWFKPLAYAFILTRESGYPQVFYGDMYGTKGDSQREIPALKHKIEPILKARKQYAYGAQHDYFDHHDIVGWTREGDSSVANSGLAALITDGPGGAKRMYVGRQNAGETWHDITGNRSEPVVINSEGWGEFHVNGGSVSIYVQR
Method: (§1) The separate reaction mixtures were incubated at 37° C. for 10 minutes. The control reaction mixtures contained enzyme, buffer, and starch but no manganese ion. The starch hydrolysis reaction was stopped by combining the reaction mixture with a solution containing DNSA and heating for 30 min at 85° C. The absorbance of the control and test samples was measured at 562 nm to monitor the amount of reducing sugar in each sample.

[2] = tested on: glucoamylase from Rhizopus sp.; experiment: hydrolysis of cooked dent corn starch; type: biochemical; conditions: cooked dent corn starch 0.5%, pH 5.2, 37° C., 10 min
Method: as §1

[3] = target: T2, α-amylase from human saliva (Homo sapiens, UniProt P0DUB6); experiment: hydrolysis of cooked dent corn starch; type: biochemical; conditions: cooked dent corn starch 0.5%, pH 5.2, 37° C., 10 min
T2 construct: the α-amylase from human saliva; from tissue; host or cells: human saliva
T2 sequence (P0DUB6 16-511): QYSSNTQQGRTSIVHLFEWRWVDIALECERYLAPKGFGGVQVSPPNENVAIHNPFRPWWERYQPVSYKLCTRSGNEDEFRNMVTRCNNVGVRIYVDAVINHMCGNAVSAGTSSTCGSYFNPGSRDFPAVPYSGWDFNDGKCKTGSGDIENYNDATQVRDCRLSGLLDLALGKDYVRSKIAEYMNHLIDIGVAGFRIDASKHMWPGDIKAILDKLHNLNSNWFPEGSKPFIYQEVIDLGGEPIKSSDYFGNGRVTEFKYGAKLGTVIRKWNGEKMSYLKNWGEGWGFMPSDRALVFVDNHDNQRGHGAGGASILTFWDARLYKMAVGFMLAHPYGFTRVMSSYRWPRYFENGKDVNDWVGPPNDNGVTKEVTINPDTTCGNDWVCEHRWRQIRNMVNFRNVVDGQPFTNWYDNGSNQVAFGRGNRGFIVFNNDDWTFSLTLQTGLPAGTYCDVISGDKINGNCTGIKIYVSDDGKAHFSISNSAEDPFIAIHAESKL
Method: as §1

[4] = target: T1, α-amylase from Bacillus licheniformis; experiment: hydrolysis of cooked starches from different botanical sources; type: biochemical; conditions: pH 5.2, 37° C., 10 min
Method: The control reaction mixture contained enzyme, buffer, and starch but no manganese ion. The starch hydrolysis reaction was stopped by combining the reaction mixture with 3,5 dinitrosalicylic acid (DNSA) and heating for 30 min at 85° C. The absorbance of the control and test samples was measured at 562 nm to monitor the amount of reducing sugar in each sample.

[5] = target: T1, α-amylase from Bacillus licheniformis; experiment: hydrolysis of raw corn starch, reducing sugar by DNSA; type: biochemical; conditions: for Relative Activity: raw corn starch, pH 5.3, 37° C., 20 min
[6] = target: α-amylase from Aspergillus oryzae (Aspergillus oryzae, UniProt P0C1B3); experiment: hydrolysis of cooked dent corn starch; type: biochemical; conditions: cooked dent corn starch 0.5%, pH 5.2, 37° C., 10 min
Method: as §1

[7] = target: T3, glucoamylase from Aspergillus Niger (Aspergillus niger, UniProt P69328); conditions: pH 5.2, 37° C., 10 min
T3 sequence (P69328 25-640): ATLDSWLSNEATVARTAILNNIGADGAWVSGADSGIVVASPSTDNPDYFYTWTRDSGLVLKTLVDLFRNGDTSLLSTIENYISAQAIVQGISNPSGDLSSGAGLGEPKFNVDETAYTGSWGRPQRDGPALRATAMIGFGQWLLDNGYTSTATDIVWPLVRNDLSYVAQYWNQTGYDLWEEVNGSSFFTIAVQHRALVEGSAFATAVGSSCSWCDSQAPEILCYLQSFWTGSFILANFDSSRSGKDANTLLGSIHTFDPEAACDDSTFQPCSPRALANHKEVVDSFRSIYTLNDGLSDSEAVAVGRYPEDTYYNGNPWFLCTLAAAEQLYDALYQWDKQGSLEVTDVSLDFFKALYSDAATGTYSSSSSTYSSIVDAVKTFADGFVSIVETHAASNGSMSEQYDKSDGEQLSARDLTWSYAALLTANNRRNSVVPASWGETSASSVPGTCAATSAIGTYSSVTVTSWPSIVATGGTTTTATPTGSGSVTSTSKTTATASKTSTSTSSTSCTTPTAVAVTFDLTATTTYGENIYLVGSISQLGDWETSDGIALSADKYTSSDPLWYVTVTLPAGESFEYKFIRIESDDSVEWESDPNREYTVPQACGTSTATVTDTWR
Method: The control reaction mixture contained enzyme, buffer, and starch but no manganese ion. The starch hydrolysis reaction was stopped by combining the reaction mixture with a solution containing DNSA and heating for 30 min at 85° C. The absorbance of the control and test samples was measured at 562 nm to monitor the amount of reducing sugar in each sample.

[8] = target: T4, β-amylase from sweet potato (Ipomoea batatas, UniProt P10537); experiment: hydrolysis of cooked dent corn starch; type: biochemical; conditions: cooked dent corn starch 0.5%, pH 5.2, 37° C., 10 min
T4 construct: purchased Sigma A-7005
T4 sequence (P10537 whole entry): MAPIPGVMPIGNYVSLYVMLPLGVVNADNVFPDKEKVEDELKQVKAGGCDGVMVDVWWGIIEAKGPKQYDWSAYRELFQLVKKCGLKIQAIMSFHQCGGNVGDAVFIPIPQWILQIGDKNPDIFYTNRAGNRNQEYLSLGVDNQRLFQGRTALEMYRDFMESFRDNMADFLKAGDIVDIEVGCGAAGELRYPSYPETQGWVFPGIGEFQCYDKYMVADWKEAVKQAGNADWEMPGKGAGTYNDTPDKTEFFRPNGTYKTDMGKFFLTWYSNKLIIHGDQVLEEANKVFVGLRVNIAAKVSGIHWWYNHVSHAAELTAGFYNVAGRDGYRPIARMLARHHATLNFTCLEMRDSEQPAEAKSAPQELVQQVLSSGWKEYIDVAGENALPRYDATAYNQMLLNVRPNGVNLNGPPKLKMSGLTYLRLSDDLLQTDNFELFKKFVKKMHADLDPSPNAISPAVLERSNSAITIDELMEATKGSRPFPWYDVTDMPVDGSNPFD
Method: as §1

[9] = target: T3, glucoamylase from Aspergillus Niger; conditions: for Relative Activity: raw corn starch, pH 5.3, 37° C., 20 min
Method: Thereafter, 40 μl of each pre-incubation solution was added to 15 mg raw corn starch, and the reaction mixture incubated at 37° C. for 20 minutes. The control reaction mixture contained substrate, enzyme, and buffer but no manganese ion. The starch hydrolysis reaction was stopped by combining the reaction mixture with a solution containing DNSA and heating for 30 min at 85° C. The absorbance of the control and test samples was measured at 562 nm to monitor the amount of reducing sugar in each sample.

[10] = 0.01 mM Mn^++, cooked potato starch 0.5%
[11] = 0.01 mM Mn^++, cooked rice starch 0.5%
[12] = 0.01 mM Mn^++, cooked soluble potato starch 0.5%
[13] = 0.1 mM Mn^++, cooked barley starch 0.5%
[14] = 0.1 mM Mn^++, cooked pea starch 0.5%
[15] = 0.1 mM Mn^++, cooked potato starch 0.5%
[16] = 0.1 mM Mn^++, cooked rice starch 0.5%
[17] = 0.1 mM Mn^++, cooked soluble potato starch 0.5%
[18] = 0.1 mM Mn^++, cooked tapioca starch 0.5%
[19] = 0.1 mM Mn^++, cooked wheat starch 0.5%
[20] = 1 mM Mn^++, cooked pea starch 0.5%
[21] = 1 mM Mn^++, cooked potato starch 0.5%
[22] = 1 mM Mn^++, cooked rice starch 0.5%
[23] = 1 mM Mn^++, cooked soluble potato starch 0.5%
[24] = 1 mM Mn^++, cooked tapioca starch 0.5%
[25] = 1 mM Mn^++, cooked wheat starch 0.5%
[26] = 10 mM Mn^++, cooked barley starch 0.5%
[27] = 10 mM Mn^++, cooked pea starch 0.5%
[28] = 10 mM Mn^++, cooked potato starch 0.5%
[29] = 10 mM Mn^++, cooked rice starch 0.5%
[30] = 10 mM Mn^++, cooked wheat starch 0.5%

[Mn+2] [Mn^++, manganese ions]
Relative Activity ([1]; 0.1 mM Mn^++): 124.4% | Relative Activity ([1]; 1 mM Mn^++): 128.7% | Relative Activity ([1]; 10 mM Mn^++): 147.8% | Relative Activity ([2]; 0.01 mM Mn^++): 112.0% | Relative Activity ([2]; 0.1 mM Mn^++): 123.8% | Relative Activity ([2]; 1 mM Mn^++): 145.1% | Relative Activity ([2]; 10 mM Mn^++): 223.5% | Relative Activity ([3]; 0.01 mM Mn^++): 120.2% | Relative Activity ([3]; 0.1 mM Mn^++): 147.5% | Relative Activity ([3]; 1 mM Mn^++): 224.4% | Relative Activity ([3]; 10 mM Mn^++): 275.6% | Relative Activity [4, 10]: 109.9% | Relative Activity [4, 11]: 115.5% | Relative Activity [4, 12]: 118.3% | Relative Activity [4, 13]: 129.2% | Relative Activity [4, 14]: 129.5% | Relative Activity [4, 15]: 117.5% | Relative Activity [4, 16]: 126.0% | Relative Activity [4, 17]: 147.6% | Relative Activity [4, 18]: 119.2% | Relative Activity [4, 19]: 118.2% | Relative Activity [4, 20]: 143.9% | Relative Activity [4, 21]: 128.7% | Relative Activity [4, 22]: 129.6% | Relative Activity [4, 23]: 142.0% | Relative Activity [4, 24]: 121.5% | Relative Activity [4, 25]: 153.0% | Relative Activity [4, 26]: 142.2% | Relative Activity [4, 27]: 182.3% | Relative Activity [4, 28]: 160.2% | Relative Activity [4, 29]: 157.7% | Relative Activity [4, 30]: 142.1% | Relative Activity ([5]; 0.01 mM Mn^++): 93.4% | Relative Activity ([5]; 0.1 mM Mn^++): 104.6% | Relative Activity ([5]; 1 mM Mn^++): 113.8% | effect on hydrolysis of raw corn starch (in words) ([5]; summary of Table 4): enhances the hydrolysis of raw corn starch | Relative Activity ([6]; 0.01 mM Mn^++): 126.9% | Relative Activity ([6]; 0.1 mM Mn^++): 131.2% | Relative Activity ([6]; 1 mM Mn^++): 135.2% | Relative Activity ([7]; 0.01 mM Mn^++, cooked barley starch 0.5%): 111.1% | Relative Activity ([7]; 0.01 mM Mn^++, cooked pea starch 0.5%): 121.1% | Relative Activity [7, 10]: 112.0% | Relative Activity [7, 11]: 109.3% | Relative Activity [7, 12]: 104.0% and 115.7% | Relative Activity ([7]; 0.01 mM Mn^++, cooked tapioca starch 0.5%): 109.5% | Relative Activity ([7]; 0.01 mM Mn^++, cooked wheat starch 0.5%): 111.9% | Relative Activity [7, 13]: 117.5% | Relative Activity [7, 14]: 124.0% | Relative Activity [7, 15]: 118.8% | Relative Activity [7, 16]: 129.3% | Relative Activity [7, 17]: 121.0% and 130.1% | Relative Activity [7, 18]: 126.0% | Relative Activity [7, 19]: 122.2% | Relative Activity ([7]; 1 mM Mn^++, cooked barley starch 0.5%): 120.4% | Relative Activity [7, 20]: 138.0% | Relative Activity [7, 21]: 138.5% | Relative Activity [7, 22]: 144.0% | Relative Activity [7, 23]: 140.0% and 79.9% | Relative Activity [7, 24]: 135.7% | Relative Activity [7, 25]: 142.5% | Relative Activity [7, 26]: 172.6% | Relative Activity [7, 27]: 179.8% | Relative Activity [7, 28]: 200.0% | Relative Activity [7, 29]: 209.2% | Relative Activity ([7]; 10 mM Mn^++, cooked tapioca starch 0.5%): 183.8% | Relative Activity [7, 30]: 185.4% | Relative Activity ([8]; 0.01 mM Mn^++): 117.6% | Relative Activity ([8]; 0.1 mM Mn^++): 131.4% | Relative Activity ([8]; 1 mM Mn^++): 148.0% | Relative Activity ([8]; 10 mM Mn^++): 215.0% | Relative Activity ([9]; 0.01 mM Mn^++): 94.4% | Relative Activity ([9]; 0.1 mM Mn^++): 111.2% | Relative Activity ([9]; 1 mM Mn^++): 127.1% | Relative Activity ([9]; 10 mM Mn^++): 160.6% | effect on hydrolysis of raw corn starch (in words) ([9]; summary of Table 4): enhances the hydrolysis of raw corn starch
